Assay results published in US8138189B2, “Substituted benzene compounds as modulators of the glucocorticoid receptor” (Hoffman-La Roche Inc., priority 2009, dated 2012).

target: T1, full length human recombinant glucocorticoid receptor (Homo sapiens, UniProt P04150); test: Glucocorticoid Receptor Binding Assay (fluorescence polarization competitor assay, Fluormone GS Far Red tracer)
T1 construct: partially purified full length human recombinant glucocorticoid receptor; purchased Panvera/Invitrogen PV4302
T1 sequence (P04150 1-777): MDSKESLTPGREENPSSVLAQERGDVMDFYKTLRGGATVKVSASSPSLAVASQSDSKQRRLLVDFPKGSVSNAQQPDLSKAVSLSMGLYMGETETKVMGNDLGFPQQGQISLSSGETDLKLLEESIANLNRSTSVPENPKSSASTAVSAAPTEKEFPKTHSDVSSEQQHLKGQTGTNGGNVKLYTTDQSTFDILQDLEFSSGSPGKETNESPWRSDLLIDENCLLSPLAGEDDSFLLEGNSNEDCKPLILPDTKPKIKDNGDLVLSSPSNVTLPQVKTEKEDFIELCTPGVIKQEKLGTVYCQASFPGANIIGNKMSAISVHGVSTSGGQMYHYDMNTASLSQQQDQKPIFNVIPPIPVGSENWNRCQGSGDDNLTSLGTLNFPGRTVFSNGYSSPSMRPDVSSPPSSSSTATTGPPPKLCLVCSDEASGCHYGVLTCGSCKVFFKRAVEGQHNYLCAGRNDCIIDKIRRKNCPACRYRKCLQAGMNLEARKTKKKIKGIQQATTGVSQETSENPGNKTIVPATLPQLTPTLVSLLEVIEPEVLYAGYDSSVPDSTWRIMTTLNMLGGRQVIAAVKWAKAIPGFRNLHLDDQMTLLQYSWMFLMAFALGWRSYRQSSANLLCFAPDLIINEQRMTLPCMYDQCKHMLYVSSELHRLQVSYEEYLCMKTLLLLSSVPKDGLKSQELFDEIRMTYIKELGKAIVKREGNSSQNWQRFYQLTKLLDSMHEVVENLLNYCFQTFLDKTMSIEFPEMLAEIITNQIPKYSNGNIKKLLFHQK
Description: Glucocorticoid Receptor Binding Assay
The ability of the substances to bind to the glucocorticoid receptor was determined with the help of a commercial Glucocorticoid Receptor Competitor Assay far red kit provided by Panvera/Invitrogen (PV4302). This kit is used as provided by the supplier. It contains some partially purified full length human recombinant glucocorticoid receptor, a coactivator related GR stabilizing peptide, a tight-binding fluorescent GR ligand Fluormone™ GS Far Red as labeled tracer and a screening buffer. All reagents are prepared and the assay is run according to the recommendations of the kit manufacturer.
Briefly, the GR stabilizing peptide and the human recombinant glucocorticoid receptor are both diluted with the screening buffer (pH 7.4) and are gently mixed (no vortexing) just before the assay and kept on ice until use. The fluorescent-labeled ligand is also diluted with the screening buffer just before the assay and kept on ice until use. The substances to test are pre-diluted in pure DMSO then some water is added to get an intermediate 4.2% DMSO stock solution. Ten microliter of the intermediate stock solution is gently mixed with 5 μl of diluted fluorescent-labeled ligand and 5 μl of diluted human recombinant glucocorticoid receptor in a 384-well plate (low volume, ultraclear, glass plate from Greiner ref 788896). The plate is centrifuged, sealed and incubated for 3 hours at 22° C. in the dark. The polarized fluorescence is measured with a Zeiss-HTS reader or any equivalent equipment (610-660 nm).
All compounds were tested to determine IC50 in a serial dilution experiment. The concentration at which 50% inhibition of the fluorescent GR ligand Fluormone™ GS Far Red is obtained (the IC50) is determined after fitting with a sigmoidal dose-response model of a plot of the logarithm of the concentration versus percent inhibition measured for the different concentrations. Ki's were calculated from IC50 based on Cheng-Prusoff equation (Cheng, Y, Prusoff, W H (1973) Biochem Pharmacol 22, 3099-3108): Ki=IC50/[1+D/Kd] wherein D is the concentration of the fluorescent ligand and Kd is the binding constant for the fluorescent ligand binding to the receptor under the conditions used in the competition experiment.

Ki [nM]	SMILES
76.6	CCOC(=O)c1ccc(COc2ccc([C@@H](C)[C@@](O)(c3cnc(C)cn3)C(F)(F)F)c(Cl)c2)cc1 (racemic) [Example 1, 4-{3-Chloro-4-[3,3,3-trifluoro-2-hydroxy-1-methyl-2-(5-methyl-pyrazin-2-yl)-propyl]-phenoxymethyl}-benzoic acid ethyl ester]
84	COC(=O)Cc1ccc(COc2ccc([C@@H](C)[C@@](O)(c3cnc(C)cn3)C(F)(F)F)c(Cl)c2)cc1 (racemic) [Example 11, (4-{3-Chloro-4-[3,3,3-trifluoro-2-hydroxy-1-methyl-2-(5-methyl-pyrazin-2-yl)-propyl]-phenoxymethyl}-phenyl)-acetic acid methyl ester]
72.3	COC(=O)c1ccc(COc2ccc([C@@H](C)[C@@](O)(c3cnc(C)cn3)C(F)(F)F)c(Cl)c2)c(OC)c1 (racemic) [Example 15, 4-{3-Chloro-4-[3,3,3-trifluoro-2-hydroxy-1-methyl-2-(5-methyl-pyrazin-2-yl)-propyl]-phenoxymethyl}-3-methoxy-benzoic acid methyl ester]
0.4	Cc1cc([C@@](O)([C@@H](C)c2ccc(Oc3ccc(C(=O)O)c(F)c3)cc2Cl)C(F)(F)F)cn(C)c1=O (racemic) [Example 204, 4-{3-Chloro-4-[2-(1,5-dimethyl-6-oxo-1,6-dihydro-pyridin-3-yl)-3,3,3-trifluoro-2-hydroxy-1-methyl-propyl]-phenoxy}-2-fluoro-benzoic acid]
0.2	Cc1cc([C@@](O)([C@@H](C)c2ccc(Oc3ccc(C(=O)O)cc3Cl)cc2Cl)C(F)(F)F)cn(C)c1=O (racemic) [Example 215, 3-Chloro-4-{3-chloro-4-[2-(1,5-dimethyl-6-oxo-1,6-dihydro-pyridin-3-yl)-3,3,3-trifluoro-2-hydroxy-1-methyl-propyl]-phenoxy}-benzoic acid]
1.4	Cc1cc([C@@](O)([C@@H](C)c2ccc(Oc3ccc(C(=O)O)cn3)cc2Cl)C(F)(F)F)cn(C)c1=O (racemic) [Example 218, 6-{3-Chloro-4-[2-(1,5-dimethyl-6-oxo-1,6-dihydro-pyridin-3-yl)-3,3,3-trifluoro-2-hydroxy-1-methyl-propyl]-phenoxy}-nicotinic acid]
7.5	COC(=O)c1ccc(COc2ccc([C@@H](C)[C@@](O)(c3ccnc(Cl)c3)C(F)(F)F)c(Cl)c2)c(OC)c1 (relative stereo) [Example 21, 4-{3-Chloro-4-[2-(2-chloro-pyridin-4-yl)-3,3,3-trifluoro-2-hydroxy-1-methyl-propyl]-phenoxymethyl}-3-methoxy-benzoic acid methyl ester]
13.3	COC(=O)Cc1ccc(COc2ccc([C@@H](C)[C@@](O)(c3ccnc(Cl)c3)C(F)(F)F)c(Cl)c2)cc1 (relative stereo) [Example 23, (4-{3-Chloro-4-[2-(2-chloro-pyridin-4-yl)-3,3,3-trifluoro-2-hydroxy-1-methyl-propyl]-phenoxymethyl}-phenyl)-acetic acid methyl ester]
114	COC(=O)c1ccc(N(C)C(=O)c2ccc([C@@H](C)[C@@](O)(c3ccnc(Cl)c3)C(F)(F)F)c(Cl)c2)cc1 (relative stereo) [Example 28, 4-({3-Chloro-4-[-2-(2-chloro-pyridin-4-yl)-3,3,3-trifluoro-2-hydroxy-1-methyl-propyl]-benzoyl}-methyl-amino)-benzoic acid methyl ester]
117	COC(=O)c1ccc(CNC(=O)c2ccc([C@@H](C)[C@@](O)(c3ccnc(Cl)c3)C(F)(F)F)c(Cl)c2)cc1 (relative stereo) [Example 36, 4-({3-Chloro-4-[2-(2-chloro-pyridin-4-yl)-3,3,3-trifluoro-2-hydroxy-1-methyl-propyl]-benzoylamino}-methyl)-benzoic acid methyl ester]
155	COC(=O)Cc1ccc(NC(=O)c2ccc([C@@H](C)[C@@](O)(c3ccnc(Cl)c3)C(F)(F)F)c(Cl)c2)cc1 (relative stereo) [Example 38, (4-{3-Chloro-4-[2-(2-chloro-pyridin-4-yl)-3,3,3-trifluoro-2-hydroxy-1-methyl-propyl]-benzoylamino}-phenyl)-acetic acid methyl ester]
121	COC(=O)c1cccc(NC(=O)c2ccc([C@@H](C)[C@@](O)(c3ccnc(Cl)c3)C(F)(F)F)c(Cl)c2)c1 (relative stereo) [Example 40, 3-{3-Chloro-4-[2-(2-chloro-pyridin-4-yl)-3,3,3-trifluoro-2-hydroxy-1-methyl-propyl]-benzoylamino}-benzoic acid methyl ester]
228	C[C@H](c1ccc(C(=O)Nc2cccc(C(=O)O)n2)cc1Cl)[C@@](O)(c1ccnc(Cl)c1)C(F)(F)F (relative stereo) [Example 44, 6-{3-Chloro-4-[2-(2-chloro-pyridin-4-yl)-3,3,3-trifluoro-2-hydroxy-1-methyl-propyl]-benzoylamino}-pyridine-2-carboxylic acid]
47.1	CCOC(=O)c1noc(-c2ccc([C@@H](C)[C@@](O)(c3ccnc(Cl)c3)C(F)(F)F)c(Cl)c2)n1 (relative stereo) [Example 47, 5-{3-Chloro-4-[2-(2-chloro-pyridin-4-yl)-3,3,3-trifluoro-2-hydroxy-1-methyl-propyl]-phenyl}-[1,2,4]oxadiazole-3-carboxylic acid ethyl ester]
48.5	C[C@H](c1ccc(-c2ccc(C(=O)O)cc2)cc1Cl)[C@@](O)(c1ccnc(Cl)c1)C(F)(F)F (relative stereo) [Example 50, 3′-Chloro-4′-[2-(2-chloro-pyridin-4-yl)-3,3,3-trifluoro-2-hydroxy-1-methyl-propyl]-biphenyl-4-carboxylic acid]
14.9	COC(=O)c1ccc(-c2ccc([C@@H](C)[C@@](O)(c3ccnc(Cl)c3)C(F)(F)F)c(Cl)c2)cc1F (relative stereo) [Example 53, 3′-Chloro-4′-[2-(2-chloro-pyridin-4-yl)-3,3,3-trifluoro-2-hydroxy-1-methyl-propyl]-3-fluoro-biphenyl-4-carboxylic acid methyl ester]
5.5	C[C@H](c1ccc(COc2ccc(C(=O)O)cn2)cc1Cl)[C@@](O)(c1ccnc(Cl)c1)C(F)(F)F (relative stereo) [Example 127, 6-{3-Chloro-4-[2-(2-chloro-pyridin-4-yl)-3,3,3-trifluoro-2-hydroxy-1-methyl-propyl]-benzyloxy}-nicotinic acid]
207	C[C@H](c1cc(Oc2ccc(C(=O)O)cn2)ccc1Cl)[C@@](O)(c1ccnc(Cl)c1)C(F)(F)F (relative stereo) [Example 133, 6-{4-Chloro-3-[2-(2-chloro-pyridin-4-yl)-3,3,3-trifluoro-2-hydroxy-1-methyl-propyl]-phenoxy}-nicotinic acid]
253	C[C@H](c1cc(Oc2ncc(C(=O)O)cn2)ccc1Cl)[C@@](O)(c1ccnc(Cl)c1)C(F)(F)F (relative stereo) [Example 135, 2-{4-Chloro-3-[2-(2-chloro-pyridin-4-yl)-3,3,3-trifluoro-2-hydroxy-1-methyl-propyl]-phenoxy}-pyrimidine-5-carboxylic acid]
1.9	C[C@@H](c1ccc(OCc2ccc(CC(=O)O)cc2)cc1Cl)[C@](O)(c1cnc2ccccc2c1)C(F)(F)F (relative stereo) [Example 145, {4-[3-Chloro-4-(3,3,3-trifluoro-2-hydroxy-1-methyl-2-quinolin-3-yl-propyl)-phenoxymethyl]-phenyl}-acetic acid]
